Paper PMC6471197, “Biological Activity and In Silico Study of 3-Modified Derivatives of Betulin and Betulinic Aldehyde” (International Journal of Molecular Sciences, 2019)
Where two headings read alike, the source gives them in different places.

How the values were obtained:
[1] = tested on: MCF-10A (normal mammary gland); assay: SRB antiproliferative assay on MCF-10A cells; assay type: cell-based, human; conditions: Neg = negative in the concentration used
Experimental: (§1) The applied human cell lines such as MV-4-11 (biphenotypic B myelomonocytic leukaemia), A549 (lung adenocarcinoma), Du-145 (prostate), Hs294T (melanoma), MCF-7 (breast adenocarcinoma) and MCF-10A (normal mammary gland) were obtained from the American Type Culture Collection (ATCC, Rockville, MD, USA). The all cell lines are maintained at the Cell Culture Collection of the Institute of Immunology and Experimental Therapy (Wrocław, Poland). The cells were plated in 96-well plates (Sarstedt, Newton, MA, USA) at a density of 1 × 10^4 cells per well in 100 µL of appropriate culture medium overnight. Biphenotypic B myelomonocytic leukaemia (MV-4-11) cells were cultured in RPMI 1640 medium (Gibco, Scotland, UK) with GlutaMAX (Thermo-Fisher Scientific, Warsaw, Poland) adjusted to contain 1.0 mM sodium pyruvate (Sigma-Aldrich, Chemie GmbH, Steinheim, Germany). Human lung adenocarcinoma (A549) cells were cultured in mixture RPMI 1640 and Opti-MEM medium (Gibco, Scotland, UK) supplemented with GlutaMAX (ThermoFisher Scientific, Warsaw, Poland) and 2mM L-glutamine adjusted to contain 1.0 mM sodium pyruvate. Human prostate (Du-145) and human breast adenocarcinoma (MCF-7) cells were cultured in Eagle medium (IIET, Wrocław, Poland), supplemented with 2 mM L-glutamine adjusted to contain 1.0 mM sodium pyruvate. Human melanoma (Hs294T) cells were cultured in Dulbecco medium (Gibco, Scotland, UK) supplemented with 2 mM L-glutamine. The normal human mammary gland cells (MCF-10A) were cultured in Ham’s F-12 medium containing 2 mM L-glutamine, 5% horse serum, epidermal growth factor EGF (100 μL/100 mL of medium), hydrocortisone (1 mL/ 100 mL of medium), insulin (100 μL/100 mL of medium) and cholera toxin (0.1 mL/100 mL of medium). All applied culture media except MCF-10A were supplemented with 10% of FBS (MV-4-11 cultured with FBS derived from Sigma-Aldrich, Chemie GmbH, Steinheim, Germany, the other cell lines FBS HyClone Thermo-Fisher Scientific, Warsaw, Poland) and streptomycin (100 µg/mL), penicillin (100 U/mL) (both from Polfa, Tarchomin, Poland). The tested cell lines were grown at 37 °C in humid atmosphere saturated with 5% CO2. In our studies were used two assays for determination the cytotoxic activity in vitro of triterpene derivatives. By dissolving 1 mg of each tested compound in 100 µL of DMSO, stock solutions at a 10 mg/mL were obtained. Next, the stock solutions were diluted in appropriate culture medium to reach the required concentrations of compounds ranging from 0.1 to 100 µg/mL. The MTT assay was used for the cytotoxicity screening against biphenotypic B myelomonocytic leukaemia (MV-4-11). The SRB assay was performed for adherent cells such as A549, Du-145, Hs294T, MCF-7 and MCF-10A. Both assays were carried as described by Wietrzyk et al.. The triterpenes in given concentration were examined in triplicates in each experiment, which was repeated 3 times. The results of anticancer activity in vitro were presented as an IC50 in µM. Cisplatin and betulin 1 were used as reference substances.

[2] = tested on: Hs294T (melanoma); assay: SRB antiproliferative assay on Hs294T cells; assay type: cell-based, human; conditions: for IC50: SRB assay
Experimental: as §1

[3] = tested on: Du-145 (prostate); assay: SRB antiproliferative assay on Du-145 cells; assay type: cell-based, human; conditions: for IC50: SRB assay
Experimental: as §1

[4] = tested on: MV-4-11 (biphenotypic B myelomonocytic leukaemia) cell line; assay: MTT antiproliferative assay on MV-4-11 cells; assay type: cell-based, human; conditions: MTT assay, Neg = negative in the concentration used
Experimental: as §1

[5] = tested on: A549 (lung adenocarcinoma); assay: SRB antiproliferative assay on A549 cells; assay type: cell-based, human
Experimental: as §1

[6] = tested on: MCF-7 (breast adenocarcinoma); assay: SRB antiproliferative assay on MCF-7 cells; assay type: cell-based, human; conditions: for IC50: SRB assay
Experimental: as §1

[7] = tested on: A549, Du-145, Hs294T, MCF-7 and MCF-10A; assay: SRB antiproliferative assay, ranges over the cell line panel; assay type: cell-based; conditions: Homo sapiens
Experimental: The applied human cell lines such as MV-4-11 (biphenotypic B myelomonocytic leukaemia), A549 (lung adenocarcinoma), Du-145 (prostate), Hs294T (melanoma), MCF-7 (breast adenocarcinoma) and MCF-10A (normal mammary gland) were obtained from the American Type Culture Collection (ATCC, Rockville, MD, USA). The all cell lines are maintained at the Cell Culture Collection of the Institute of Immunology and Experimental Therapy (Wrocław, Poland). The cells were plated in 96-well plates (Sarstedt, Newton, MA, USA) at a density of 1 × 10^4 cells per well in 100 µL of appropriate culture medium overnight. Biphenotypic B myelomonocytic leukaemia (MV-4-11) cells were cultured in RPMI 1640 medium (Gibco, Scotland, UK) with GlutaMAX (Thermo-Fisher Scientific, Warsaw, Poland) adjusted to contain 1.0 mM sodium pyruvate (Sigma-Aldrich, Chemie GmbH, Steinheim, Germany). Human lung adenocarcinoma (A549) cells were cultured in mixture RPMI 1640 and Opti-MEM medium (Gibco, Scotland, UK) supplemented with GlutaMAX (ThermoFisher Scientific, Warsaw, Poland) and 2mM L-glutamine adjusted to contain 1.0 mM sodium pyruvate. Human prostate (Du-145) and human breast adenocarcinoma (MCF-7) cells were cultured in Eagle medium (IIET, Wrocław, Poland), supplemented with 2 mM L-glutamine adjusted to contain 1.0 mM sodium pyruvate. […]

[8] = SI = IC50 for normal mammary gland (MCF-10A)/IC50 on tumour cell line

C=C(C)[C@@H]1CC[C@]2(CO)CC[C@]3(C)[C@H](CC[C@@H]4[C@@]5(C)CC[C@H](O)C(C)(C)[C@@H]5CC[C@]43C)[C@@H]12 [Betulin 1, betulin]
IC50 ([1]; Homo sapiens, MCF-10A): 124 ± 41.6 µM
IC50 ([2]; Homo sapiens, Hs 294T): 44.1 ± 7.2 µM
IC50 ([3]; Homo sapiens, DU-145): 44 ± 19.4 µM
IC50 ([4]; Homo sapiens, MV4-11): 8.1 ± 2.9 µM
IC50 ([5]; Homo sapiens, A549): 8.6 ± 0.7 µM
IC50 ([6]; Homo sapiens, MCF7): 26.2 ± 6.5 µM

N.N.[Cl][Pt][Cl] [Cisplatin, reference compound]
IC50 [1]: 14.7 ± 1 µM
IC50 [2]: 6.3 ± 1.3 µM
IC50 [3]: 1.6 ± 0.3 µM
IC50 [4]: 1 ± 0.27 µM
IC50 [5]: 4.3 ± 1.3 µM
IC50 [6]: 7.7 ± 0.3 µM

C=C(C)C1CC[C@]2(CO)CC[C@]3(C)C(CCC4[C@@]5(C)CC[C@H](OC(C)=O)C(C)(C)C5CC[C@]43C)C12 (stereo partly drawn) [Compound 2, 3-acetylbetulin, reference compound]
IC50 ([4]; Homo sapiens, MV4-11): 27.2 ± 5.9 µM

C=C(C)C1CC[C@]2(C=O)CC[C@]3(C)C(CCC4[C@@]5(C)CC[C@H](OC(C)=O)C(C)(C)C5CC[C@]43C)C12 (stereo partly drawn) [Compound 3, 3-acetylbetulinic aldehyde, reference compound]
IC50 ([4]; Homo sapiens, MV4-11): 35 ± 12.8 µM

C=C(C)C1CC[C@]2(CO)CC[C@]3(C)C(CCC4[C@@]5(C)CC[C@H](OC(=O)CC)C(C)(C)C5CC[C@]43C)C12 (stereo partly drawn) [Compound 5, 3-Propanoylbetulin]
IC50 ([4]; Homo sapiens, MV4-11): 38.9 ± 11.8 µM

C=CC(=O)O[C@H]1CC[C@@]2(C)C(CC[C@]3(C)C2CCC2C4C(C(=C)C)CC[C@]4(CO)CC[C@]23C)C1(C)C (stereo partly drawn) [Compound 6, 3-(2-Propenoyl)betulin]
IC50 ([1]; Homo sapiens, MCF-10A): 120 ± 15.3 µM
IC50 ([3]; Homo sapiens, DU-145): 84.5 ± 39.4 µM
IC50 ([4]; Homo sapiens, MV4-11): 4.2 ± 1.2 µM
IC50 ([5]; Homo sapiens, A549): 23.3 ± 1.8 µM
IC50 ([6]; Homo sapiens, MCF7): 45.9 ± 3.8 µM

C=C(C)C1CC[C@]2(CO)CC[C@]3(C)C(CCC4[C@@]5(C)CC[C@H](OC(=O)C#CC6CC6)C(C)(C)C5CC[C@]43C)C12 (stereo partly drawn) [Compound 7, 3-(3-Cyclopropyl-2-propynoyl)betulin]
IC50 ([4]; Homo sapiens, MV4-11): 62.4 ± 9.9 µM

C=C(C)C1CC[C@]2(CO)CC[C@]3(C)C(CCC4[C@@]5(C)CC[C@H](OC(=O)C#Cc6ccccc6)C(C)(C)C5CC[C@]43C)C12 (stereo partly drawn) [Compound 8, 3-Phenylpropynoylbetulin]
MV-4-11 IC50 [4]: Neg

C=C(C)C1CC[C@]2(CO)CC[C@]3(C)C(CCC4[C@@]5(C)CC[C@H](OC(=O)C#CC)C(C)(C)C5CC[C@]43C)C12 (stereo partly drawn) [Compound 9, 3-(2-Butynoyl)betulin]
IC50 ([1]; Homo sapiens, MCF-10A): 71.7 ± 8.6 µM
IC50 ([2]; Homo sapiens, Hs 294T): 10.6 ± 4.3 µM
Selectivity Index (SI) towards Hs294T [2, 8]: 6.76
IC50 ([3]; Homo sapiens, DU-145): 7.3 ± 0.8 µM
Selectivity Index (SI) towards Du-145 [3, 8]: 9.82
IC50 ([4]; Homo sapiens, MV4-11): 4.5 ± 1.7 µM
IC50 ([5]; Homo sapiens, A549): 83.5 ± 25.3 µM
IC50 ([7]; range over A549, Du-145, Hs294T, MCF-7, MCF-10A, read-out: IC50 against the tested cell lines): 7.3 to 83.5 µM
IC50 ([7]; range over the three cell lines, read-out: IC50 towards Du-145, MCF-7 and Hs294T cells): 7.3 to 10.6 µM
IC50 ([6]; Homo sapiens, MCF7): 10.4 ± 5.7 µM
Selectivity Index (SI) towards MCF-7 [6, 8]: 6.89

C=C(C)C1CC[C@]2(CO)CC[C@]3(C)C(CCC4[C@@]5(C)CC[C@H](OC(=O)OCC)C(C)(C)C5CC[C@]43C)C12 (stereo partly drawn) [Compound 10, 3-Ethoxycarbonylbetulin]
IC50 ([4]; Homo sapiens, MV4-11): 20 ± 1.5 µM

C=C(C)C1CC[C@]2(CO)CC[C@]3(C)C(CCC4[C@@]5(C)CC[C@H](OC(=O)OCCC)C(C)(C)C5CC[C@]43C)C12 (stereo partly drawn) [Compound 11, 3-Propoxycarbonylbetulin]
IC50 ([4]; Homo sapiens, MV4-11): 30.8 ± 1.5 µM

C=CCOC(=O)O[C@H]1CC[C@@]2(C)C(CC[C@]3(C)C2CCC2C4C(C(=C)C)CC[C@]4(CO)CC[C@]23C)C1(C)C (stereo partly drawn) [Compound 12, 3-Allyloxycarbonylbetulin]
IC50 ([4]; Homo sapiens, MV4-11): 20.1 ± 4.7 µM
